Active and inactive are the calls of the source. No cut-off for these calls is given here.
Tests used:
[1] = system: Glomerular mesangial cell; assay: Increase in total Nrf2 expression in human glomerular mesangial cells at 10 uM under high glucose condition by Western blot analysis; format: functional, tissue-based; conditions: dose microM 0.1-10
[2] = biological target: T1, Nuclear factor erythroid 2-related factor 2 (Homo sapiens) (UniProt Q16236); assay: Activation of Nrf2 in human glomerular mesangial cells assessed as increase in Nrf2 level at 0.1 to 10 uM under high glucose condition; format: tissue-based; conditions: Glomerular mesangial cell, filed as activator, dose microM 0.1-10
T1 sequence (whole entry): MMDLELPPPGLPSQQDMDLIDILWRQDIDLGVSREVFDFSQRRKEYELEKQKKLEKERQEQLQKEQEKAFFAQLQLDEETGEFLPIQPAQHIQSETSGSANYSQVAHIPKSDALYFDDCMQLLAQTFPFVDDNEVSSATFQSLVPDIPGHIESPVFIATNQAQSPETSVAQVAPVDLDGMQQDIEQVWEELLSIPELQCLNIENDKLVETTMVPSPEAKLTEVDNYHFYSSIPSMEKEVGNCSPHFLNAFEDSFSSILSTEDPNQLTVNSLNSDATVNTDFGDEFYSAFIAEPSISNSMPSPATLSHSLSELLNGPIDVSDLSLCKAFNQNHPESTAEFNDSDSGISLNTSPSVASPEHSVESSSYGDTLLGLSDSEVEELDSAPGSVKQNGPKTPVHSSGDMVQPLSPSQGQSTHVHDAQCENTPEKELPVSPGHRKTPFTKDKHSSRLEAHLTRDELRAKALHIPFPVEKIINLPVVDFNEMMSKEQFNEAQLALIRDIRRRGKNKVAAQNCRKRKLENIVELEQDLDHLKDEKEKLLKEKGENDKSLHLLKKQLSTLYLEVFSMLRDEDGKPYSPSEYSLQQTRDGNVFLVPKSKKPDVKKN

[3] = Cytotoxicity against human glomerular mesangial cells assessed as effect on cell viability at 400 uM after 1 hr by CCK8 assay; format: cell-based
[4] = system: Glomerular mesangial cell; assay: Cytoprotective activity against high glucose-induced decreased cell viability in human glomerular mesangial cells at 0.1 uM after 1 hr by CCK8 assay; format: functional, tissue-based
[5] = system: Glomerular mesangial cell; assay: Cytoprotective activity against high glucose-induced self-limited proliferation in human glomerular mesangial cells at 0.1 to 10 uM measured after 3 hrs under high glucose condition by BrdU incorporation assay; format: functional, tissue-based; conditions: dose microM 0.1-10, time 3.0 hrs
[6] = biological target: T1, Nuclear factor erythroid 2-related factor 2 (Homo sapiens); assay: Activation of Nrf2 in human glomerular mesangial cells assessed as translocation of Nrf2 from cytoplasm to nucleus at 0.1 to 10 uM under high glucose condition by DAPI staining based fluorescence microscopy analysis; format: tissue-based; conditions: Glomerular mesangial cell, filed as activator, dose microM 0.1-10
[7] = biological target: T1, Nuclear factor erythroid 2-related factor 2 (Homo sapiens); assay: Activation of Nrf2 in human glomerular mesangial cells assessed as increase in nuclear Nrf2 expression at 0.1 to 10 uM under high glucose condition by Western blot analysis; conditions: Glomerular mesangial cell, filed as activator, dose microM 0.1-10
[8] = Suppression of high glucose-induced extracellular matrix accumulation in human glomerular mesangial cells assessed as effect on TGFbeta1 secretion at 0.1 uM by ELISA (reference value: 312.7 +/- 18.2 %); format: functional; conditions: Glomerular mesangial cell
[9] = biological target: T1, Nuclear factor erythroid 2-related factor 2 (Homo sapiens); assay: Activation of Nrf2 in human glomerular mesangial cells transfected with ARE luciferase reporter plasmid assessed as increase in ARE luciferase activity at 0.1 to 10 uM under high glucose condition by dual luciferase reporter gene assay; conditions: Glomerular mesangial cell, filed as activator, dose microM 0.1-10
[10] = Antioxidant activity against high glucose-induced oxidative stress in human glomerular mesangial cells assessed as effect on intracellular ROS level at 0.1 uM after 20 mins by DCFH-DA staining based fluorescence assay (reference value: 361 +/- 16.7 %); format: functional, Glomerular mesangial cell
[11] = Antioxidant activity against high glucose-induced oxidative stress in human glomerular mesangial cells assessed as effect on intracellular ROS level at 1 uM after 20 mins by DCFH-DA staining based fluorescence assay (reference value: 361 +/- 16.7 %); format: functional, Glomerular mesangial cell
[12] = Antioxidant activity against high glucose-induced oxidative stress in human glomerular mesangial cells assessed as effect on intracellular ROS level at 10 uM after 20 mins by DCFH-DA staining based fluorescence assay (reference value: 361 +/- 16.7 %); format: functional, Glomerular mesangial cell
[13] = Antioxidant activity against high glucose-induced oxidative stress in human glomerular mesangial cells assessed as effect on intracellular MDA level at 0.1 uM after 10 mins by thiobarbituric acid based absorbance analysis (reference value: 216 +/- 17.3 %); format: functional, Glomerular mesangial cell
[14] = Antioxidant activity against high glucose-induced oxidative stress in human glomerular mesangial cells assessed as effect on intracellular MDA level at 1 uM after 10 mins by thiobarbituric acid based absorbance analysis (reference value: 216 +/- 17.3 %); format: functional, Glomerular mesangial cell
[15] = Antioxidant activity against high glucose-induced oxidative stress in human glomerular mesangial cells assessed as effect on intracellular MDA level at 10 uM after 10 mins by thiobarbituric acid based absorbance analysis (reference value: 216 +/- 17.3 %); format: functional, Glomerular mesangial cell
[16] = Antioxidant activity against high glucose-induced oxidative stress in human glomerular mesangial cells assessed as effect on SOD activity at 0.1 uM by colorimetric assay relative to control; format: functional, Glomerular mesangial cell
[17] = Antioxidant activity against high glucose-induced oxidative stress in human glomerular mesangial cells assessed as effect on SOD activity at 1 uM by colorimetric assay relative to control; format: functional, Glomerular mesangial cell
[18] = Antioxidant activity against high glucose-induced oxidative stress in human glomerular mesangial cells assessed as effect on SOD activity at 10 uM by colorimetric assay relative to control; format: functional, Glomerular mesangial cell
[19] = Antioxidant activity against high glucose-induced oxidative stress in human glomerular mesangial cells assessed as effect on CAT activity at 0.1 uM by colorimetric assay relative to control; format: functional, Glomerular mesangial cell
[20] = Antioxidant activity against high glucose-induced oxidative stress in human glomerular mesangial cells assessed as effect on CAT activity at 1 uM by colorimetric assay relative to control; format: functional, Glomerular mesangial cell
[21] = Antioxidant activity against high glucose-induced oxidative stress in human glomerular mesangial cells assessed as effect on CAT activity at 10 uM by colorimetric assay relative to control; format: functional, Glomerular mesangial cell
[22] = Suppression of high glucose-induced extracellular matrix accumulation in human glomerular mesangial cells assessed as collagen 4 level at 0.1 uM by ELISA (reference value: 221.7 +/- 14.1 %); format: functional; conditions: Glomerular mesangial cell
[23] = Suppression of high glucose-induced extracellular matrix accumulation in human glomerular mesangial cells assessed as collagen 4 level at 1 uM by ELISA (reference value: 221.7 +/- 14.1 %); format: functional; conditions: Glomerular mesangial cell
[24] = Suppression of high glucose-induced extracellular matrix accumulation in human glomerular mesangial cells assessed as collagen 4 level at 10 uM by ELISA (reference value: 221.7 +/- 14.1 %); format: functional; conditions: Glomerular mesangial cell
[25] = Suppression of high glucose-induced extracellular matrix accumulation in human glomerular mesangial cells assessed as fibronectin level at 0.1 uM by ELISA (reference value: 319.6 +/- 12.4 %); format: functional; conditions: Glomerular mesangial cell
[26] = Suppression of high glucose-induced extracellular matrix accumulation in human glomerular mesangial cells assessed as fibronectin level at 1 uM by ELISA (reference value: 319.6 +/- 12.4 %); format: functional; conditions: Glomerular mesangial cell
[27] = Suppression of high glucose-induced extracellular matrix accumulation in human glomerular mesangial cells assessed as fibronectin level at 10 uM by ELISA (reference value: 319.6 +/- 12.4 %); format: functional; conditions: Glomerular mesangial cell
[28] = Suppression of high glucose-induced extracellular matrix accumulation in human glomerular mesangial cells assessed as laminin level at 0.1 uM by ELISA (reference value: 183.8 +/- 9.3 %); format: functional; conditions: Glomerular mesangial cell
[29] = Suppression of high glucose-induced extracellular matrix accumulation in human glomerular mesangial cells assessed as laminin level at 1 uM by ELISA (reference value: 183.8 +/- 9.3 %); format: functional; conditions: Glomerular mesangial cell
[30] = Suppression of high glucose-induced extracellular matrix accumulation in human glomerular mesangial cells assessed as laminin level at 10 uM by ELISA (reference value: 183.8 +/- 9.3 %); format: functional; conditions: Glomerular mesangial cell
[31] = system: Glomerular mesangial cell; assay: Suppression of high glucose-induced extracellular matrix accumulation in human glomerular mesangial cells assessed as reduction in collagen 4 level by ELISA; format: functional, tissue-based; conditions: dose microM 0.1-10
[32] = system: Glomerular mesangial cell; assay: Suppression of high glucose-induced extracellular matrix accumulation in human glomerular mesangial cells assessed as reduction in fibronectin level by ELISA; format: functional, tissue-based; conditions: dose microM 0.1-10
[33] = system: Glomerular mesangial cell; assay: Suppression of high glucose-induced extracellular matrix accumulation in human glomerular mesangial cells assessed as reduction in laminin level by ELISA; format: functional, tissue-based; conditions: dose microM 0.1-10
[34] = Suppression of high glucose-induced extracellular matrix accumulation in human glomerular mesangial cells assessed as effect on TGFbeta1 secretion at 1 uM by ELISA (reference value: 312.7 +/- 18.2 %); format: functional; conditions: Glomerular mesangial cell
[35] = Suppression of high glucose-induced extracellular matrix accumulation in human glomerular mesangial cells assessed as effect on TGFbeta1 secretion at 10 uM by ELISA (reference value: 312.7 +/- 18.2 %); format: functional; conditions: Glomerular mesangial cell
[36] = Suppression of high glucose-induced extracellular matrix accumulation in human glomerular mesangial cells assessed as effect on CTGF secretion at 10 uM by ELISA (reference value: 267.7 +/- 21.3 %); format: functional; conditions: Glomerular mesangial cell
[37] = system: Glomerular mesangial cell; assay: Suppression of high glucose-induced extracellular matrix accumulation in human glomerular mesangial cells assessed as decrease in CTGF secretion by ELISA; format: functional, tissue-based; conditions: dose microM 0.1-10
[38] = system: Glomerular mesangial cell; assay: Suppression of high glucose-induced extracellular matrix accumulation in human glomerular mesangial cells assessed as decrease in TGFbeta1 secretion by ELISA; format: functional, tissue-based; conditions: dose microM 0.1-10
[39] = system: Glomerular mesangial cell; assay: Effect on high glucose-induced oxidative stress in human glomerular mesangial cells transfected with Nrf2-siRNA assessed as decrease in intracellular ROS level at 10 uM; format: functional, tissue-based
[40] = system: Glomerular mesangial cell; assay: Effect on high glucose-induced oxidative stress in human glomerular mesangial cells transfected with Nrf2-siRNA assessed as decrease in intracellular MDA level at 10 uM; format: functional
[41] = system: Glomerular mesangial cell; assay: Effect on high glucose-induced extracellular matrix accumulation in human glomerular mesangial cells transfected with Nrf2-siRNA assessed as decrease in collagen 4 level at 10 uM; format: functional, tissue-based
[42] = system: Glomerular mesangial cell; assay: Effect on high glucose-induced extracellular matrix accumulation in human glomerular mesangial cells transfected with Nrf2-siRNA assessed as decrease in fibronectin level at 10 uM; format: functional, tissue-based
[43] = system: Glomerular mesangial cell; assay: Effect on high glucose-induced extracellular matrix accumulation in human glomerular mesangial cells transfected with Nrf2-siRNA assessed as decrease in laminin level at 10 uM; format: functional, tissue-based
[44] = biological target: Kelch-like ECH-associated protein 1 (Homo sapiens) (UniProt Q14145); assay: Binding affinity to Keap1 in human glomerular mesangial cells assessed as disruption of Keap1-Nrf2 complex formation causing decrease in Keap1 level at 10 uM measured after overnight by co-immunoprecipitation analysis; format: tissue-based; conditions: Glomerular mesangial cell, filed as activator, time 12.0 hrs
Chain of Kelch-like ECH-associated protein 1 (Homo sapiens) (Q14145 whole entry): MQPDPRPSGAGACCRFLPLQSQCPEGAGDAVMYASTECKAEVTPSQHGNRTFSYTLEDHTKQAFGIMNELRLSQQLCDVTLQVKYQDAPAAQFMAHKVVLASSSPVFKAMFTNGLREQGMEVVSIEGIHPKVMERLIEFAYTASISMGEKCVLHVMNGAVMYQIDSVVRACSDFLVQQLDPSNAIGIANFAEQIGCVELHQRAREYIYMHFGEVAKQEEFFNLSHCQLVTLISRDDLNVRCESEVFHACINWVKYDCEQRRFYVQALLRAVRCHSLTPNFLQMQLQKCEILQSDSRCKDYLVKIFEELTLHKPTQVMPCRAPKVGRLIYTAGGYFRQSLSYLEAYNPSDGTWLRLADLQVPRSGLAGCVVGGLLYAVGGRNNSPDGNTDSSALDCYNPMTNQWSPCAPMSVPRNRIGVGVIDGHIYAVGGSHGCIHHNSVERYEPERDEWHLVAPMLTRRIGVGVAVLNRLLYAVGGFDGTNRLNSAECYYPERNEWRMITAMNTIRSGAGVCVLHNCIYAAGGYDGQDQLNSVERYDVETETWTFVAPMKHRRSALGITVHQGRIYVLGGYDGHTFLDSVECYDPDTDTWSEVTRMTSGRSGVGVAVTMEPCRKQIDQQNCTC

O=C(O)/C=C/c1cc(OC(=O)/C=C/c2ccc(O[C@@H]3O[C@H](CO)[C@@H](O)[C@H](O)[C@H]3O)cc2)cc(O[C@@H]2O[C@H](CO)[C@@H](O)[C@H](O)[C@H]2O)c1
Activity [1]: Active | Activity [2]: Active | Activity [3]: Non-Toxic | Activity [4]: Active | Activity [5]: Active | Activity [6]: Active | Activity [7]: Active | level, % of control at 0.1 µM [8]: 262% | Activity [9]: Active | Activity [10]: 323% | Activity [11]: 287.2% | Activity [12]: 190.8% | Activity [13]: 183.9% | Activity [14]: 163.7% | Activity [15]: 135.9% | Activity [16]: 155.7% | Activity [17]: 229.2% | Activity [18]: 306.3% | Activity [19]: 144.6% | Activity [20]: 188.5% | Activity [21]: 233.4% | level, % of control at 0.1 µM [22]: 193% | level, % of control at 1 µM [23]: 163% | level, % of control at 10 µM [24]: 129% | level, % of control at 0.1 µM [25]: 282% | level, % of control at 1 µM [26]: 246% | level, % of control at 10 µM [27]: 179% | level, % of control at 0.1 µM [28]: 163% | level, % of control at 1 µM [29]: 148% | level, % of control at 10 µM [30]: 124% | inhibition [31]: Dose-dependent effect | inhibition [32]: Dose-dependent effect | inhibition [33]: Dose-dependent effect | level, % of control at 1 µM [34]: 213% | level, % of control at 10 µM [35]: 140% | level, % of control at 10 µM [36]: 119% | inhibition [37]: Dose-dependent effect | inhibition [38]: Dose-dependent effect | Activity [39]: inactive | Activity [40]: inactive | Activity [41]: inactive | Activity [42]: inactive | Activity [43]: inactive | Activity [44]: Active
